Data as given in patent US20150258052A1, “METHODS OF USING FEXARAMINE AND AGENTS THAT INCREASE SYMPATHETIC NERVOUS SYSTEM ACTIVITY TO PROMOTE BROWNING OF WHITE ADIPOSE TISSUE” (Salk Institute for Biological Studies, priority 2014, published 2015).

Experiments:
[1] = LC/MS quantification of serum fexaramine after PO or IP administration; type: in vivo, mice
Experimental: FIG. 1D is a schematic diagram illustrating an experimental procedure used to evaluate fexaramine, where mice were treated with vehicle or fexaramine (100 mg/kg) via PO or IP injection, and LC/MS quantification of serum fexaramine was conducted five days later.
FIG. 1E is a bar chart illustrating serum fexaramine concentrations after administration as described in FIG. 1D. Data represent mean values±STD. Statistical analysis was performed with the Student's t test (*p<0.05, **p<0.01).
Upon exploration of the in vivo effects of fexaramine (Fex) administration, it was discovered that due to ineffectual absorption, oral (PO) and intraperitoneal (IP) drug delivery produced very different effects (FIGS. 1D and 1E).

FXR-null mice = experiment: Fexaramine in HFD-fed FXR-null mice; type: in vivo; conditions: 100 mg/kg 5 weeks
Experimental: Data represent the mean±SD. Statistical analysis was performed with the Student's t test. *p<0.05, **p<0.01.

TGR5 null mice = experiment: Fexaramine in HFD-fed TGR5-null mice; type: in vivo; conditions: 100 mg/kg/day PO 5 weeks
Experimental: HFD-fed TGR5-null mice were treated with vehicle or fexaramine (100 mg/kg os daily for 5 weeks with HFD, n=10). (A) Ileal FXR target gene expressions (B) Serum BA levels (C) Fasting glucose levels (D) Glucose tolerance test (E) Core body temperature (F) Oxygen consumption rate (G) Carbon dioxide production (H) Gene expression in BAT (I) Body weight curve (J) Body composition by MRI (K) Insulin Tolerance Test (L) Hepatic gene expression (M) Hepatic TG levels (N) and Gene expression in soleus of TGR5 knockout mice with and without fexaramine treatment. Data represent the mean±SD. Statistical analysis was performed with the Student's t test. *p<0.05, **p<0.01.
To address this possibility, HFD-fed TGR5 null mice were chronically treated with Fex (100 mg/kg/day PO for 5 weeks). […] In particular, the anti-lipogenic effects of Fex in the liver appear to require TGR5 activation, as key hepatic lipogenic genes and liver triglyceride content were not affected by Fex treatment (FIGS. 11L, 11M).

DIO mice = experiment: Hyperinsulinemic-euglycemic clamp and liver analysis in Fex-treated DIO mice; type: in vivo
Experimental: Mice were fed HFD for 14 weeks and then subjected to daily PO injection of vehicle or fexaramine (100 mg/kg) for 5 weeks with HFD. In the bar graphs, open bars are vehicle, solid bars are fexaramine, and data represent the mean±STD. Statistical analysis was performed with the Student's t test (*p<0.05, **p<0.01).
FIGS. 15I-15K are a line graph and two bar graphs showing the effect of fexaramine treatment on body weight, insulin-stimulated GDR, and fasting insulin levels. Mice were fed HFD for 14 weeks, and then administered daily oral injections of vehicle or fexaramine (100 mg/kg) for 3 weeks with HFD. The mice treated with fexaramine were initially heavier (by 2-3 grams). Three weeks after treatment, a clamp study was performed on the mice. Data represent the mean±STD. Statistical analysis was performed with the Student's t test (*p<0.05, **p<0.01).
Liver insulin resistance has been linked to obesity-induced hepatic steatosis (Cohen et al., Science 332:1519-1523, 2011). […] Furthermore, decreased serum alanine aminotransferase (ALT) levels were measured in Fex-treated mice, indicating reduced HFD-induced liver damage (FIG. 15H). Thus, in DIO mice Fex promotes hepatic insulin sensitization, reduced steatosis, improved metabolic markers, decreased ALT and enhanced BAT activity.

[2] = system: white adipose tissue (WAT); experiment: Inflammation, lipolysis and browning of white adipose tissue in Fex-treated DIO mice; type: in vivo
Experimental: Mice were fed on HFD for 14 weeks and subsequently subjected to daily PO injection of vehicle or fexaramine (100 mg/kg) for 5 weeks with HFD. In the bar graphs, open bars are vehicle, solid bars of fexaramine, and data represent the mean±STD. Statistical analysis was performed with the Student's t test (*p<0.05, **p<0.01).
FIG. 12F is a bar chart showing serum glycerol levels in vehicle or fexaramine-treated mice. Isoproterenol (1 μg/kg) was injected at 0 minutes and free glycerol levels were measured at the indicated time points. Data represent the mean±STD. Statistical analysis was performed with the Student's t test (*p<0.05, **p<0.01).
Mice fed a HFD for 14 weeks were maintained on a HFD and treated with vehicle or fexaramine (100 mg/kg/day os for 5 week). (I) Changes in genes associated with the browning of adipose tissue and (J) oxygen consumption rate of the stromal vascular fraction (SVF) from inguinal fat (iWAT). Data represent the mean±SD. Statistical analysis was performed with the Student's t test. *p<0.05, **p<0.01.
FIG. 13 is a set of digital images of gel electrophoreses (Western blots) showing the level of expression of various proteins in gonadal white adipose tissue (gWAT). Mice fed a HFD for 14 weeks were maintained on a HFD and treated with vehicle or fexaramine (50 mg or 100 mg/kg/day os for 5 week).
FIG. 14 is a bar chart showing that fexaramine reduces brown adipose tissue (BAT) inflammation. Mice fed a HFD for 14 weeks were maintained on a HFD and treated with vehicle or fexaramine (100 mg/kg/day os for 5 weeks). Expression of inflammatory cytokines in BAT. Data represent the mean±SD. Statistical analysis was performed with the Student's t test. *p<0.05, **p<0.01.
During obesity, adipose tissue expands by hyperplastic and/or hypertrophic growth, is chronically inflamed, and produces inflammatory cytokines that ultimately contribute to systemic metabolic dysregulation. […] These noncanonical IκB kinases were recently shown to play crucial roles in energy expenditure as a consequence of adipose tissue inflammation upon diet-induced obesity (Reilly et al., Nat Med 19:313-321, 2013).
Brown adipose-driven adaptive thermogenesis is fueled by mitochondrial oxidation of free fatty acids (FFAs) released from triglyceride stores into the circulation, predominantly by the action of hormone-sensitive lipase (HSL).

[3] = DIO mice, chronic Fex treatment

## COC(=O)/C=C/c1cccc(N(Cc2ccc(-c3ccc(N(C)C)cc3)cc2)C(=O)C2CCCCC2)c1 [Fex, fexaramine]
[1]; acute 100 mg/kg, PO compared to IP
  serum Fex level after PO relative to IP levels: 10%
[1]; mouse, serum, PO 100 mg/kg, read-out: serum levels of Fex after PO administration
  concentration at 5 days: < 25 nM
FXR-null mice
  Fex-induced changes in gene expression and improvements in metabolic homeostasis: abrogated
TGR5 null mice
  FXR target genes in ileum including FGF15: induced multiple FXR target genes
  core body temperature and metabolic rate: somewhat blunted increases
  fasting glucose levels and glucose tolerance: moderate improvements
  key hepatic lipogenic genes and liver triglyceride content: not affected
  serum BA levels: lowered serum BA levels
  weight gain or insulin sensitivity: no significant changes
DIO mice; DIO mice, 100 mg/kg PO 5 weeks
  lipid droplets in liver (histology, hepatic steatosis): reduction in lipid droplets
  serum alanine aminotransferase (ALT) levels: decreased
DIO mice; [3]
  hepatic expression of gluconeogenic and lipogenic genes: reduced hepatic expression
  hepatic triglycerides: marked decrease
DIO mice; hyperinsulinemic-euglycemic clamp, versus control DIO mice
  insulin-mediated suppression of HGP: marked increase
DIO mice; weight-matched cohorts, hyperinsulinemic-euglycemic clamp
  basal HGP, GDR, IS-GDR, FFA suppression and fasting insulin levels: No differences
[2]; 100 mg/kg PO 5 weeks
  abundance of multi-locular, UCP1-expressing adipocytes in inguinal adipose tissue (immunohistochemistry): substantial increase
  expression of TNFα, MCP-1, IL-1α and macrophage marker F4/80 in visceral and brown adipose depots: reduced in visceral and brown adipose depots
[2]; 100 mg/kg/day 5 week
  expression of "brown fat-like" signature genes in inguinal adipose tissue: increased the expression
  respiratory capacity (oxygen consumption rate) of stromal vascular fraction from inguinal adipose tissue: increased respiratory capacity
[2]; Western blot
  S6K phosphorylation (mTORC1 pathway) in gonadal WAT: reduced S6K phosphorylation
  levels of IKK-ε and TANK-binding kinase 1 (TBK1) in gWAT: reduced levels
[2]; chronic Fex treatment
  HSL phosphorylation in adipose depots: pronounced increase
  serum catecholamine levels: increased serum catecholamine levels
  serum levels of free fatty acids: pronounced increase
  β3-adrenergic receptor expression in gonadal adipose tissue: increased
[2]; chronic Fex-treatment
  cross-sectional area of adipocytes in visceral depots (gonadal and mesenteric): markedly reduced
